Drawing on PubChem BioAssay AID330 (DTP/NCI, 2004), this text covers T/C for 22 molecules.

For this assay, the system named is P388 leukemia ip, CD2F1 mice, survival T/C. Kind of assay: NCI In Vivo Anticancer Drug Screen. Data for tumor model P388 Leukemia (intraperitoneal) in CD2F1 (CDF1) mice. Particulars: endpoint: median survival time, higher = longer survival. The method, boiled down:
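Mice carrying the transplanted tumor received test compound or vehicle. Survival was recorded in each group, and the value is the treated-group measurement divided by that of the vehicle-treated control group.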

Setting [1] is: dose: 12.5 mg/kg/injection, schedule: Q01DX009 (ip), vehicle: saline with Tween-80.
The mark [2] stands for this setting: dose: 25.0 mg/kg/injection, schedule: Q01DX009 (ip), vehicle: saline with Tween-80.
Setting [3] is: dose: 50.0 mg/kg/injection, schedule: Q01DX009 (ip), vehicle: saline with Tween-80.
[4] abbreviates: dose: 60.0 mg/kg/injection, schedule: Q01DX005 (ip), vehicle: saline with Tween-80.
Setting [5] is: dose: 120.0 mg/kg/injection, schedule: Q01DX005 (ip), vehicle: saline with Tween-80.
[6] abbreviates: dose: 240.0 mg/kg/injection, schedule: Q01DX005 (ip), vehicle: saline with Tween-80.
Where [7] appears, read: dose: 50.0 mg/kg/injection, schedule: Q01DX005 (ip), vehicle: saline with Tween-80.
[8] abbreviates: dose: 100.0 mg/kg/injection, schedule: Q01DX005 (ip), vehicle: saline with Tween-80.

The structures appear in SMILES notation. Where “and” joins values, the source holds several entries; their conditions need not be identical. Equal values may be shown once. Inconclusive results and toxic doses are left out.

Turning to `Cc1c2ccnc(C(N)=O)c2c(C)c2c1[nH]c1ccccc12`, the T/C runs as follows: (dose: 6.25 mg/kg/injection, schedule: Q04DX002 (ip), vehicle: distilled water + Tween-80) 99 % of control; (dose: 6.25 mg/kg/injection, schedule: Q04DX003 (ip), vehicle: distilled water + Tween-80) 111 % of control; (dose: 12.5 mg/kg/injection, schedule: Q04DX002 (ip), vehicle: distilled water + Tween-80) 99 % of control; (dose: 12.5 mg/kg/injection, schedule: Q04DX003 (ip), vehicle: distilled water + Tween-80) 112 % of control; (dose: 25.0 mg/kg/injection, schedule: Q04DX002 (ip), vehicle: distilled water + Tween-80) 99 % of control; (dose: 25.0 mg/kg/injection, schedule: Q04DX003 (ip), vehicle: distilled water + Tween-80) 112 % of control. For the same molecule, the T/C reads like this: (dose: 50.0 mg/kg/injection, schedule: Q04DX002 (ip), vehicle: distilled water + Tween-80) 104 % of control; (dose: 50.0 mg/kg/injection, schedule: Q04DX003 (ip), vehicle: distilled water + Tween-80) 104 % of control; (dose: 100.0 mg/kg/injection, schedule: Q04DX002 (ip), vehicle: distilled water + Tween-80) 104 % of control and 111 % of control; (dose: 100.0 mg/kg/injection, schedule: Q04DX003 (ip), vehicle: distilled water + Tween-80) 111 % of control; (dose: 200.0 mg/kg/injection, schedule: Q04DX002 (ip), vehicle: distilled water + Tween-80) 118 % of control; (dose: 200.0 mg/kg/injection, schedule: Q04DX003 (ip), vehicle: distilled water + Tween-80) 115 % of control. The T/C (dose: 800.0 mg/kg/injection, schedule: Q04DX002 (ip), vehicle: distilled water + Tween-80) was 155 % of control.
Take `C[C@H](N)C(O)/C=C/c1ccccc1` (some centres not stated): the T/C (dose: 10.0 mg/kg/injection, schedule: Q01DX005 (ip), vehicle: saline) is 103 % of control; the T/C (dose: 20.0 mg/kg/injection, schedule: Q01DX005 (ip), vehicle: saline) was 93 % of control; the T/C (dose: 40.0 mg/kg/injection, schedule: Q01DX005 (ip), vehicle: saline) was 97 % of control.
For the molecule `Cc1coc2c1CCC(C)C2` (configuration not stated), the T/C was 92 % of control under setting [1]; 107 % of control under setting [2]; 100 % of control and 110 % of control under setting [3].
Turning to `S=C(S)N1CCCC1`, the T/C is, setting by setting: (dose: 50.0 mg/kg/injection, schedule: Q01DX009 (ip), vehicle: saline) 100 % of control; (dose: 100.0 mg/kg/injection, schedule: Q01DX009 (ip), vehicle: saline) 93 % of control.
For `CCN(CC)Cc1cc(Nc2cc(C)nc3ccc(N(C)C)cc23)ccc1O`, the T/C reads like this: (dose: 15.0 mg/kg/injection, schedule: Q01DX005 (ip), vehicle: saline) 91 % of control; (dose: 30.0 mg/kg/injection, schedule: Q01DX005 (ip), vehicle: saline) 100 % of control; (dose: 60.0 mg/kg/injection, schedule: Q01DX005 (ip), vehicle: saline) 104 % of control and 110 % of control.
Take `CN(C)c1ccc(C(=NNC(N)=S)c2ccc(N(C)C)cc2)cc1`: the T/C is 96 % of control (dose: 12.5 mg/kg/injection, schedule: Q04DX003 (ip), vehicle: Klucel (hydroxypropylcellulose) (HPC)); 105 % of control (dose: 25.0 mg/kg/injection, schedule: Q04DX003 (ip), vehicle: Klucel (hydroxypropylcellulose) (HPC)); 99 % of control and 108 % of control (dose: 50.0 mg/kg/injection, schedule: Q04DX003 (ip), vehicle: Klucel (hydroxypropylcellulose) (HPC)).
Turning to `CN(C)C(=O)NC1CCC2CCCCC2C1` (configuration not stated), the T/C is, setting by setting: (dose: 100.0 mg/kg/injection, schedule: Q01DX001 (ip), vehicle: saline) 100 % of control; (dose: 200.0 mg/kg/injection, schedule: Q01DX001 (ip), vehicle: saline) 99 % of control; (dose: 400.0 mg/kg/injection, schedule: Q01DX001 (ip), vehicle: saline) 98 % of control.
In the case of `CN1CCC(OC(=O)c2ccc3ncccc3c2)CC1`, the T/C (dose: 50.0 mg/kg/injection, schedule: Q04DX003 (ip), vehicle: saline) was 100 % of control and the T/C (dose: 100.0 mg/kg/injection, schedule: Q04DX003 (ip), vehicle: saline) is 98 % of control.
`CON/C=C(C#N)/C=C/C=Nc1ccc(S(=O)(=O)N=C(N)N)cc1`: the T/C is, setting by setting: under setting [1], 98 % of control; under setting [2], 93 % of control; under setting [3], 87 % of control and 92 % of control.
Take `CN(C)c1cccc2c(Cl)c(Cl)c3cccc(N(C)C)c3c12`: the T/C is, setting by setting: under setting [4], 98 % of control; under setting [5], 100 % of control; under setting [6], 99 % of control.
For `CCn1cnc(-c2ccccc2)c1-c1ccccc1`, the T/C is, setting by setting: (dose: 25.0 mg/kg/injection, schedule: Q04DX003 (ip), vehicle: saline with Tween-80) 109 % of control; (dose: 50.0 mg/kg/injection, schedule: Q04DX003 (ip), vehicle: saline with Tween-80) 100 % of control.
For the molecule `CCOc1cccc2c(NCCCCCCCCNc3c4ccccc4nc4c(OCC)cccc34)c3ccccc3nc12`, the T/C is 166 % of control (dose: 3.75 mg/kg/injection, schedule: Q01DX009 (ip), vehicle: other) and 157 % of control (dose: 7.5 mg/kg/injection, schedule: Q01DX009 (ip), vehicle: other).
As for `CCOC(=O)C1=CC2CCOC2O1` (configuration not stated), the T/C is 95 % of control under setting [4], 95 % of control under setting [5] and 101 % of control under setting [6].
For `CC(C)(C)N=C(CCNC1CCCCC1)Nc1ccccc1Cl`, the T/C is, setting by setting: under setting [3], 100 % of control; (dose: 100.0 mg/kg/injection, schedule: Q01DX009 (ip), vehicle: saline with Tween-80) 109 % of control; (dose: 200.0 mg/kg/injection, schedule: Q01DX009 (ip), vehicle: saline with Tween-80) 101 % of control.
For the molecule `O=S(=O)(Nc1cccc(NS(=O)(=O)c2ccccc2)n1)c1ccccc1`, the T/C is 91 % of control (dose: 50.0 mg/kg/injection, schedule: Q01DX001 (ip), vehicle: saline with Tween-80); 91 % of control (dose: 100.0 mg/kg/injection, schedule: Q01DX001 (ip), vehicle: saline with Tween-80); 91 % of control (dose: 200.0 mg/kg/injection, schedule: Q01DX001 (ip), vehicle: saline with Tween-80).
`COC1=CC2(C=CC1=O)CCC(=O)O2` (configuration not stated): the T/C is 119 % of control (dose: 12.5 mg/kg/injection, schedule: Q01DX005 (ip), vehicle: saline with Tween-80); 111 % of control (dose: 25.0 mg/kg/injection, schedule: Q01DX005 (ip), vehicle: saline with Tween-80); 115 % of control and 113 % of control under setting [7]; 108 % of control under setting [8].
Turning to `Cc1ccc(C)c(NC(=O)CCC(=O)C(C)C(=O)c2ccccc2)c1` (configuration not stated), the T/C runs as follows: under setting [4], 111 % of control; under setting [5], 102 % of control; under setting [6], 108 % of control.
Consider `COc1cc2c(cc1OC)[C@@H]1C(=O)c3ccc4c(c3O[C@@H]1CO2)C[C@H](C(C)C)O4`, for which the T/C (dose: 6.25 mg/kg/injection, schedule: Q01DX005 (ip), vehicle: Klucel (hydroxypropylcellulose) (HPC)) is 109 % of control; the T/C (dose: 12.5 mg/kg/injection, schedule: Q01DX005 (ip), vehicle: Klucel (hydroxypropylcellulose) (HPC)) is 121 % of control and 123 % of control and 124 % of control; the T/C (dose: 25.0 mg/kg/injection, schedule: Q01DX005 (ip), vehicle: Klucel (hydroxypropylcellulose) (HPC)) was 119 % of control.
As to `COc1cc(Cc2n[nH]c(=S)[nH]c2=O)cc(OC)c1OC`, the T/C was 110 % of control (dose: 100.0 mg/kg/injection, schedule: Q04DX002 (ip), vehicle: Klucel (hydroxypropylcellulose) (HPC)); 98 % of control (dose: 200.0 mg/kg/injection, schedule: Q04DX002 (ip), vehicle: Klucel (hydroxypropylcellulose) (HPC)); 100 % of control (dose: 400.0 mg/kg/injection, schedule: Q04DX002 (ip), vehicle: Klucel (hydroxypropylcellulose) (HPC)).
Consider `COC(=O)c1nnn(-c2cccc(Cl)c2)c1N`, for which the T/C is 95 % of control under setting [4] and 95 % of control under setting [5].
As to `CN(C)c1ccc(C(Nc2ccc(S(=O)(=O)Nc3ccccc3)cc2)c2ccc(N(C)C)cc2)cc1`, the T/C was 105 % of control (dose: 100.0 mg/kg/injection, schedule: Q04DX003 (ip), vehicle: Klucel (hydroxypropylcellulose) (HPC)); 110 % of control (dose: 200.0 mg/kg/injection, schedule: Q04DX003 (ip), vehicle: Klucel (hydroxypropylcellulose) (HPC)); 105 % of control (dose: 400.0 mg/kg/injection, schedule: Q04DX003 (ip), vehicle: Klucel (hydroxypropylcellulose) (HPC)).
For the molecule `CCOC(=O)NC1c2ccccc2Oc2c(C)cccc21` (configuration not stated), the T/C is, setting by setting: under setting [7], 100 % of control; under setting [8], 100 % of control; (dose: 200.0 mg/kg/injection, schedule: Q01DX005 (ip), vehicle: saline with Tween-80) 100 % of control.
